The target of one test is T1, HA1 adenosine receptor (Homo sapiens, UniProt P30542).
T1 sequence (P30542 1-326): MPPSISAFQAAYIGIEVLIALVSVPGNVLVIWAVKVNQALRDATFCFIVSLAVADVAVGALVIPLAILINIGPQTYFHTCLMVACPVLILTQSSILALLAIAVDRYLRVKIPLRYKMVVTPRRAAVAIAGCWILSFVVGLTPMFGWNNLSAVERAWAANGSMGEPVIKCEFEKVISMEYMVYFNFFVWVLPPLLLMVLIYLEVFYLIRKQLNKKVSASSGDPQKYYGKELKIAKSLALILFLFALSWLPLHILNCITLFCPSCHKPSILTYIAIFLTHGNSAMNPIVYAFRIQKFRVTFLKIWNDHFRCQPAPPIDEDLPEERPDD
Put plainly: Human adenosine A1 receptor affinity (Ki hA1). The format is binding. Conditions: affinity to human adenosine A1 receptor.

In test [1] the target is T2, human adenosine A2A receptor (Homo sapiens, UniProt P29274).
T2 construct: expressed in transfected cells; host or cells: CHO cells, Semliki Forest virus expression system; membrane preparation
T2 sequence (P29274 whole entry): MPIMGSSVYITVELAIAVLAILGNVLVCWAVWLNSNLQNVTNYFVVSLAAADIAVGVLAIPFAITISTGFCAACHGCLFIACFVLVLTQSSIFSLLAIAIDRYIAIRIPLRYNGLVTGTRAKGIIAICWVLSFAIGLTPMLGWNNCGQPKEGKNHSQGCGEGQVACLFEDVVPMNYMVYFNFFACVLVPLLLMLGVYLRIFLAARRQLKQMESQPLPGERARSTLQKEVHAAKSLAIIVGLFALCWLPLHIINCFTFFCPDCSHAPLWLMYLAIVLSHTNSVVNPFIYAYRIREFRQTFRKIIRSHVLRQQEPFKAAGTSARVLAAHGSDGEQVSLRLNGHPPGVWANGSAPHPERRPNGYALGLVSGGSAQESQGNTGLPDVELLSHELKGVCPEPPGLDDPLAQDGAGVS
The test can be described thus: Human adenosine A2A receptor [3H]-SCH-58261 binding assay. The note with it: for Ki: affinity to human adenosine A2A receptor, read-out: Ki HA2A; for selectivity (A1/A2a): calculated ratio of the affinity to the HA1 receptor to the HA2a receptor.

Molecules are shown by their SMILES.

`CCCCN(Cc1ccccc1)C(=O)c1cc(N)n2nc(-c3ccc(OC)s3)nc2c1` [Example 73, 5-Amino-2-(5-methoxy-thiophen-2-yl)-[1,2,4]triazolo[1,5-a]pyridine-7-carboxylic acid benzyl-butyl-amide]: the affinity at HA1 adenosine receptor corresponds to a Ki of 136 nM. Moreover, in test [1], the inhibitory constant (Ki) stood at 37.4 nM and the “selectivity (A1/A2a)” value is reported as 3.6.
In the same order, the values of `COc1ccc(-c2nc3cc(C(=O)N(CCc4ccccc4)Cc4ccccc4)cc(N)n3n2)s1` [Example 75, 5-Amino-2-(5-methoxy-thiophen-2-yl)-[1,2,4]triazolo[1,5-a]pyridine-7-carboxylic acid benzyl-phenethyl-amide] are 15.8 nM, 26.6 nM and 0.6.
`COc1ccc(-c2nc3cc(C(=O)N(C)CCc4ccccc4)cc(N)n3n2)s1` [Example 77, 5-Amino-2-(5-methoxy-thiophen-2-yl)-[1,2,4]triazolo[1,5-a]pyridine-7-carboxylic acid methyl-phenethyl-amide] displayed a Ki at HA1 adenosine receptor of 295 nM. Besides, in test [1], the Ki turned out to be 116 nM and the “selectivity (A1/A2a)” value was 2.5.
For the compound `COc1ccc(-c2nc3cc(C(=O)NCCc4ccccc4Cl)cc(N)n3n2)s1` [Example 78, 5-Amino-2-(5-methoxy-thiophen-2-yl)-[1,2,4]triazolo[1,5-a]pyridine-7-carboxylic acid [2-(2-chloro-phenyl)-ethyl]-amide], the inhibitory constant (Ki) at HA1 adenosine receptor was 97.4 nM. Also, in test [1], the Ki stood at 389 nM and the “selectivity (A1/A2a)” value is recorded as 0.3.
On the same counts, the results for `Nc1cc(C(=O)NCc2ccccc2Br)cc2nc(-c3cccnc3)nn12` [Example 79, 5-Amino-2-pyridin-3-yl-[1,2,4]triazolo[1,5-a]pyridine-7-carboxylic acid 2-bromo-benzylamide] are 1400 nM, 152 nM and 9.2.
For `CCCCNC(=O)c1cc(N)n2nc(-c3cccnc3)nc2c1` [Example 80, 5-Amino-2-pyridin-3-yl-[1,2,4]triazolo[1,5-a]pyridine-7-carboxylic acid butylamide], the Ki on HA1 adenosine receptor is 3770 nM. Also, in test [1], the Ki came out at 282 nM and the “selectivity (A1/A2a)” value is listed as 13.4.
At HA1 adenosine receptor, `Nc1cc(C(=O)NC2CCC2)cc2nc(-c3cccnc3)nn12` [Example 81, 5-Amino-2-pyridin-3-yl-[1,2,4]triazolo[1,5-a]pyridine-7-carboxylic acid cyclobutylamide] had a Ki of 4390 nM. Further, in test [1], the inhibition constant (Ki) is 315 nM and the “selectivity (A1/A2a)” value is on record as 13.9.
With `CCCNC(=O)c1cc(N)n2nc(-c3cccnc3)nc2c1` [Example 82, 5-Amino-2-pyridin-3-yl-[1,2,4]triazolo[1,5-a]pyridine-7-carboxylic acid propylamide], the affinity on HA1 adenosine receptor corresponds to a Ki of 5850 nM. Moreover, in test [1], the Ki amounted to 309 nM and the “selectivity (A1/A2a)” value was 18.9.
With `Nc1cc(C(=O)NCc2ccccc2Cl)cc2nc(-c3ccc[nH]3)nn12` [Example 83, 5-Amino-2-(1H-pyrrol-2-yl)-[1,2,4]triazolo[1,5-a]pyridine-7-carboxylic acid 2-chloro-benzylamide], on HA1 adenosine receptor, the affinity corresponds to a Ki of 1500 nM. Also, in test [1], the inhibition constant (Ki) was 130 nM and the “selectivity (A1/A2a)” value is reported as 11.6.
Take `CCCCN(Cc1ccccc1)C(=O)c1cc(N)n2nc(-c3ccc[nH]3)nc2c1` [Example 84, 5-Amino-2-(1H-pyrrol-2-yl)-[1,2,4]triazolo[1,5-a]pyridine-7-carboxylic acid benzyl-butyl-amide]: the inhibition constant Ki was 4960 nM at HA1 adenosine receptor and 294 nM in test [1]. Further, in test [1], the “selectivity (A1/A2a)” value was 16.9.
On the same counts, the results for `CCN(Cc1ccccc1F)C(=O)c1cc(N)n2nc(-c3ccc[nH]3)nc2c1` [Example 85, 5-Amino-2-(1H-pyrrol-2-yl)-[1,2,4]triazolo[1,5-a]pyridine-7-carboxylic acid ethyl-(2-fluoro-benzyl)-amide] are 1400 nM, 169 nM and 8.3.
In the same order, the values of `CC(C)N(Cc1ccccc1)C(=O)c1cc(N)n2nc(-c3cccnc3)nc2c1` [Example 86, 5-Amino-2-pyridin-3-yl-[1,2,4]triazolo[1,5-a]pyridine-7-carboxylic acid benzyl-isopropyl-amide] are 819 nM, 252 nM and 3.2.
On the same counts, the results for `COc1ccccc1CNC(=O)c1cc(N)n2nc(-c3cccnc3)nc2c1` [Example 87, 5-Amino-2-pyridin-3-yl-[1,2,4]triazolo[1,5-a]pyridine-7-carboxylic acid 2-methoxy-benzylamide] are 1260 nM, 240 nM and 5.2.
In the case of `CCN(Cc1ccccc1)C(=O)c1cc(N)n2nc(-c3cccnc3)nc2c1` [Example 88, 5-Amino-2-pyridin-3-yl-[1,2,4]triazolo[1,5-a]pyridine-7-carboxylic acid benzyl-ethyl-amide], the values for the Ki (at HA1 adenosine receptor; in test [1]) were 993 nM and 278 nM, respectively. The “selectivity (A1/A2a)” value in test [1] is recorded as 3.6.
In the same order, the values of `CCCCN(Cc1ccccc1)C(=O)c1cc(N)n2nc(-c3cccnc3)nc2c1` [Example 89, 5-Amino-2-pyridin-3-yl-[1,2,4]triazolo[1,5-a]pyridine-7-carboxylic acid benzyl-butyl-amide] are 900 nM, 174 nM and 5.2.
As to `Nc1cc(C(=O)N(CCc2ccccc2)Cc2ccccc2)cc2nc(-c3cccnc3)nn12` [Example 90, 5-Amino-2-pyridin-3-yl-[1,2,4]triazolo[1,5-a]pyridine-7-carboxylic acid benzyl-phenethyl-amide], the results for the Ki (at HA1 adenosine receptor; in test [1]) were 239 nM and 144 nM, respectively. The “selectivity (A1/A2a)” value in test [1] was 1.7.
In the same order, the values of `CCN(Cc1ccccc1F)C(=O)c1cc(N)n2nc(-c3cccnc3)nc2c1` [Example 91, 5-Amino-2-pyridin-3-yl-[1,2,4]triazolo[1,5-a]pyridine-7-carboxylic acid ethyl-(2-fluoro-benzyl)-amide] are 815 nM, 144 nM and 5.7.
Take `COc1ccccc1CNC(=O)c1cc(N)n2nc(-c3ccc[nH]3)nc2c1` [Example 93, 5-Amino-2-(1H-pyrrol-2-yl)-[1,2,4]triazolo[1,5-a]pyridine-7-carboxylic acid 2-methoxy-benzylamide]: at HA1 adenosine receptor, affinity was put at a Ki of 4860 nM. In addition, in test [1], the Ki came to 304 nM and the “selectivity (A1/A2a)” value was 16.0.
In the same order, the values of `Nc1cc(C(=O)N(CCc2ccccc2)Cc2ccccc2)cc2nc(-c3ccc[nH]3)nn12` [Example 96, 5-Amino-2-(1H-pyrrol-2-yl)-[1,2,4]triazolo[1,5-a]pyridine-7-carboxylic acid benzyl-phenethyl-amide] are 729 nM, 217 nM and 3.4.
On the same counts, the results for `COc1cc(CNC(=O)c2cc(N)n3nc(-c4nccs4)nc3c2)cc(OC)c1OC` [Example 97, 5-Amino-2-thiazol-2-yl-[1,2,4]triazolo[1,5-a]pyridine-7-carboxylic acid 3,4,5-trimethoxy-benzylamide] are 2560 nM, 235 nM and 10.9.
`CCCCNC(=O)c1cc(N)n2nc(-c3ccoc3)nc2c1` [Example 98, 5-Amino-2-furan-3-yl-[1,2,4]triazolo[1,5-a]pyridine-7-carboxylic acid butylamide] returned a Ki on HA1 adenosine receptor of 767 nM. Further, in test [1], the Ki was 50.5 nM and the “selectivity (A1/A2a)” value is reported as 15.2.
Consider `Nc1cc(C(=O)N2CCCC2)cc2nc(-c3ccoc3)nn12` [Example 99, (5-Amino-2-furan-3-yl-[1,2,4]triazolo[1,5-a]pyridin-7-yl)-pyrrolidin-1-yl-methanone], for which the affinity on HA1 adenosine receptor, expressed as Ki, was 6100 nM. Besides, in test [1], the Ki was 233 nM and the “selectivity (A1/A2a)” value is recorded as 26.2.
For the compound `Cc1ccc(-c2nc3cc(C(=O)N(C)C4CCCCC4)cc(N)n3n2)o1` [Example 100, 5-Amino-2-(5-methyl-furan-2-yl)-[1,2,4]triazolo[1,5-a]pyridine-7-carboxylic acid cyclohexyl-methyl-amide], the affinity at HA1 adenosine receptor, expressed as Ki, was 529 nM. For the same compound, in test [1], the Ki amounted to 15.5 nM and the “selectivity (A1/A2a)” value is recorded as 34.1.
In turn, `CCN(CC)C(=O)c1cc(N)n2nc(-c3ccccc3O)nc2c1` [Example 101, 5-Amino-2-(2-hydroxy-phenyl)-[1,2,4]triazolo[1,5-a]pyridine-7-carboxylic acid diethylamide] showed an inhibitory constant (Ki) on HA1 adenosine receptor of 701 nM. Moreover, in test [1], the Ki is 33.3 nM and the “selectivity (A1/A2a)” value is 21.1.
Regarding `Nc1cc(C(=O)N2CCCCC2)cc2nc(-c3ccccc3O)nn12` [Example 102, [5-Amino-2-(2-hydroxy-phenyl)-[1,2,4]triazolo[1,5-a]pyridin-7-yl]-piperidin-1-yl-methanone], the affinity on HA1 adenosine receptor corresponds to a Ki of 978 nM. Besides, in test [1], the inhibitory constant (Ki) stood at 57.6 nM and the “selectivity (A1/A2a)” value is 17.0.
Compound `Nc1cc(C(=O)N2CCCCC2)cc2nc(-c3nccs3)nn12` [Example 103, (5-Amino-2-thiazol-2-yl-[1,2,4]triazolo[1,5-a]pyridin-7-yl)-piperidin-1-yl-methanone] yielded a Ki on HA1 adenosine receptor of 3530 nM. Further, in test [1], the Ki is 101 nM and the “selectivity (A1/A2a)” value is on record as 35.1.
On the same counts, the results for `CCCCNC(=O)c1cc(N)n2nc(-c3ccco3)nc2c1` [Example 104, 5-Amino-2-furan-2-yl-[1,2,4]triazolo[1,5-a]pyridine-7-carboxylic acid butylamide] are 223 nM, 4.9 nM and 46.0.

Values taken from US6506772B1, “Substituted [1,2,4]triazolo[1,5a]pyridine derivatives with activity as adenosine receptor ligands” (Hoffmann-La Roche Inc., priority 2000, dated 2003).
